Experimental data: patent US11434237B2, “Selective ligands for tau aggregates” (KARIN & STEN MORTSTEDT CBD SOLUTIONS AB, priority 2017, dated 2022)

What was measured:
[1] = biological target: T1, Aβ aggregates (Homo sapiens, UniProt P05067); test: Compound and antibody 4G8 double staining of AD brain tissue sections; format: binding; conditions: for Overlap between Fluorescence from tested compound and fluorescence from 4G8 observed / Fluorescence from tested compound observed: 100 nM compound, human AD brain tissue sections; for Overlap between Fluorescence from tested compound and fluorescence from 4G8 observed: Aβ antibody 4G8; for Fluorescence from tested compound observed: double staining with Aβ antibody 4G8; for Fluorescence from 4G8 observed: signal of Aβ antibody 4G8 in the section stained with 100 nM of the compound
T1 construct: compound and antibody double staining of Aβ or tau aggregates; from tissue; host or cells: human AD brain tissue sections (20 μm)
T1 sequence (P05067 672-713 limits assumed): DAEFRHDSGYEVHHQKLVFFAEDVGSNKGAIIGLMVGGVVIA
Description: (§1) To achieve compound and antibody double staining of Aβ or tau aggregates, tissue sections (20 μm) from human AD brain were fixed in 70% EtOH at 4° C. for 3 min, rehydrated in distilled water and then incubated in PBS for 30 min. Sections were blocked and permeabilized in PBS with 5% normal goat serum and 0.1% triton X-100 (blocking buffer) for 1 h at room temperature (RT). Antibody 4G8 (Biolegend, San Diego, Calif., USA) reactive to Aβ, and AT100 (Thermo Fisher Scientific, Waltham, Mass., USA) directed against tau phosphorylated at […] (3) were diluted 1:500 and 1:1000, respectively, in blocking buffer and added to the sections. After 16 h incubation at 4° C. unbound antibody was removed by washing in PBS with 0.1% triton X-100 (PBS-T) 3×10 min. To visualize antibody binding to Aβ or tau aggregates sections were incubated with goat anti-mouse secondary antibody labelled with Alexa 647 (Thermo Fisher Scientific). The antibody was diluted 1:200 in blocking buffer and after 1 h incubation at RT sections were washed in PBS 3×10 min. Example Compound 3a, Example Compound 3b, Example Compound 3c, Example Compound 3d, Example Compound 3e, Example Compound 3f, Example Compound 3g, Example Compound 3h, Example Compound 3i, Example Compound 3j, Example Compound 3k, Example Compound 3m, Example Compound 3n, Example Compound 3o, Example Compound 3p, Example Compound 3q, Example Compound 3r, Example Compound 3s, Example Compound 3t, Example Compound 3u, Example Compound 8a, Comparative Example 1, Comparative Example 2, Comparative Example 3 and Comparative Example 4 were dissolved in DMSO to a concentration of 1.5 mM and then further diluted in PBS to a final concentration of 100 nM compound prior to staining. The tissue sections were then stained for 30 min at RT with these freshly prepared solutions containing 100 nM of the respective compound in PBS. After three washes in PBS the sections were mounted in Dako mounting medium for fluorescence (Dako Cytomation, Glostrup, Denmark) and allowed to dry overnight before analysis. Fluorescence images were collected using an inverted LSM 780 confocal microscope (Carl Zeiss, Oberkochen, Germany) with the following excitation/emission wavelengths optimized for each compound: 458/484-600 (Comparative Example 1, Comparative Example 3), 561/569-648 (Example Compound 3a, Example Compound 3b, Example Compound 3c, Example Compound 3d, Example Compound 3e, Example Compound 3f, Example Compound 3g, Example Compound 3h, Example Compound 3i, Example Compound 3j, Example Compound 3k, Example Compound 3m, Example Compound 3n, Example Compound 3o, Example Compound 3p, Example Compound 3q, Example Compound 3r, Example Compound 3s, Example Compound 3t, Example Compound 3u, Example Compound 8a, Comparative Example 2 and Comparative Example 4) and 633/638-755 (Alexa 647). To visualize autofluorescent lipofuscin excitation/emission wavelengths 405/410-480 or 405/410-514 were used.

[2] = biological target: T2, tau aggregates (Homo sapiens, UniProt P10636); test: Compound and antibody AT100 double staining of AD brain tissue sections; format: binding; conditions: for Labelling of immune-positive NFTs and dystrophic neurites / Fluorescence from tested compound observed / Overlap between Fluorescence from tested compound and fluorescence from AT-100 observed: 100 nM compound; for Labelling of immune-positive NFTs and dystrophic neurites: AT100 co-staining, AD brain sections; for Fluorescence from tested compound observed / Overlap between Fluorescence from tested compound and fluorescence from AT-100 observed: human AD brain tissue sections; for Fluorescence from tested compound observed: double staining with tau antibody AT-100; for Overlap between Fluorescence from tested compound and fluorescence from AT-100 observed: tau antibody AT-100; for Fluorescence from AT-100 observed: signal of tau antibody AT-100 in the section stained with 100 nM of the compound
T2 construct: tissue sections (20 μm) from human AD brain; from tissue; host or cells: human AD brain tissue sections (20 μm)
T2 sequence (P10636 1-441 isoform P10636-8): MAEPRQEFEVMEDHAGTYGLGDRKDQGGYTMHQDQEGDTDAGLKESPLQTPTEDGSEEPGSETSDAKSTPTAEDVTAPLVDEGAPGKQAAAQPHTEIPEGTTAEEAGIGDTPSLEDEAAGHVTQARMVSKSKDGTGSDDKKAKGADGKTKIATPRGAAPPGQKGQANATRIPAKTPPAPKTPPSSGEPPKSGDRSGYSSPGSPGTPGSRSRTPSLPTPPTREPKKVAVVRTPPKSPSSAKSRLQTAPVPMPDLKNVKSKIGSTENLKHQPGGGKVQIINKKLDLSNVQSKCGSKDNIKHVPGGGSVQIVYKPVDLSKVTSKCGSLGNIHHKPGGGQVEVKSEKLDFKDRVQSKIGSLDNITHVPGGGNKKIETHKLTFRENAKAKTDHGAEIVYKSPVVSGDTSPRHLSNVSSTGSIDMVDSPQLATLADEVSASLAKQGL
Description: as §1

[3] = system: Aβ and tau deposits; test: Co-staining of AD brain sections with PBB3 and Example Compound 3b; format: binding, human; conditions: simultaneous 100 nM PBB3 and 100 nM Example Compound 3b
Description: Frozen brain sections (20 μm) were fixed in 96% EtOH, rehydrated in 50% EtOH and de-ionized water and then incubated in phosphate buffered saline (PBS, 10 mM phosphate, 140 mM NaCl, 2.7 mM KCl, pH 7.4) for 10 min. Solutions containing 100 nM PBB3 and 100 nM Example Compound 3b or 100 nM q-FTAA-CN and 100 nM Example Compound 3a in PBS were added to the sections. After 30 min, the sections were washed with PBS and mounted with Dako fluorescent mounting medium (Dako Cytomation, Glostrup, Denmark). The mounting medium was allowed to solidify over night before collecting emission spectra of the compounds bound to misfolded A ? and tau using an inverted LSM 780 confocal microscope (Carl Zeiss, Oberkochen, Germany) with excitation wavelengths at 405 nm (PBB3 and q-FTAA-CN) and 561 nm (Example Compound 3a and Example Compound 3b).

[4] = biological target: T2, tau aggregates; test: Example Compound 3b staining of AD brain sections pre-incubated with PBB3 or PBS; format: binding
Description: (§2) Frozen brain sections (20 μm) were fixed in 96% EtOH, rehydrated in 50% EtOH and de-ionized water and then incubated in phosphate buffered saline (PBS, 10 mM phosphate, 140 mM NaCl, 2.7 mM KCl, pH 7.4) for 10 min. The sections were stained with solutions containing 1 ? M PBB3 or 1 ? M q-FTAA-CN in PBS for 30 min and after rinsing three times with PBS, the sections was stained with a solution containing 10 nM Example Compound 3b. After 30 min, the sections were washed with PBS and mounted with Dako fluorescent mounting medium (Dako Cytomation, Glostrup, Denmark). The mounting medium was allowed to solidify over night before collecting emission spectra of the compounds bound to misfolded Aβ and tau using an inverted LSM 780 confocal microscope (Carl Zeiss, Oberkochen, Germany) with excitation wavelengths at 405 nm (PBB3 and q-FTAA-CN) and 561 nm (Example Compound 3b).

[5] = biological target: T2, tau aggregates; test: Example Compound 3b staining of AD brain sections pre-incubated with q-FTAA-CN; format: binding; conditions: FIG. 7H, pre-incubated with 1 μM q-FTAA-CN, then 10 nM Example Compound 3b
Description: as §2

[6] = Excitation and emission spectra of compounds in DMSO or PBS; format: physicochemical; conditions: 300 nM in DMSO or PBS pH 7.4
Description: Stock solutions of Example Compound 3a, Example Compound 3b, Example Compound 3c, Example Compound 3d and Example Compound 8a (1.5 mM in DMSO) were diluted to 300 nM in phosphate buffered saline (PBS, 10 mM phosphate, 140 mM NaCl, 2.7 mM KCl, pH 7.4) or DMSO. Excitation and emission spectra of the compounds were collected using an Infinite M1000 Pro microplate reader (Tecan, Männedorf, Switzerland).

[7] = system: Aβ and tau deposits; test: Staining of AD brain sections with PBB3 alone; format: binding, human; conditions: 100 nM PBB3 alone in PBS pH 7.4, FIG. 6A
Description: as §2, with “100 nM” for “1 ? M”, “PBB3” for “PBB3 or 1 ? M q-FTAA-CN”, “with” for “with PBS, the sections was stained with a solution containing 10 nM Example Compound 3b. After 30 min, the sections were washed with”, “PBS” for “PBS and”, “compound” for “compounds”, “(PBB3).” for “(PBB3 and q-FTAA-CN) and 561 nm (Example Compound 3b).”

[8] = FIG. 7F, pre-incubated with 1 μM PBB3, then 10 nM Example Compound 3b

Row | SMILES | Overlap between Fluorescence from tested compound and fluorescence from 4G8 observed [1] | Fluorescence from tested compound observed [1] | Fluorescence from 4G8 observed [1] | Labelling of immune-positive NFTs and dystrophic neurites [2] | Fluorescence from tested compound observed [2] | Overlap between Fluorescence from tested compound and fluorescence from AT-100 observed [2] | Fluorescence from AT-100 observed [2] | Fluorescence from Example Compound 3b observed ([3]; FIG. 7E) | Overlap between Fluorescence from Example Compound 3b and fluorescence from PBB3 ([3]; FIG. 7E) | Deposits labelled [3] | Selectivity and affinity for tau deposits compared with PBB3 [3] | Fluorescence from Example Compound 3b observed [4, 8] | Fluorescence from Example Compound 3b observed ([4]; FIG. 7G, pre-incubated in PBS only, 10 nM Example Compound 3b) | Fluorescence from Example Compound 3b observed [5] | Overlap between Fluorescence from Example Compound 3b and fluorescence from q-FTAA-CN [5] | Excitation and emission spectra when switching solvent from DMSO to PBS [6] | Fluorescence from PBB3 observed ([3]; FIG. 7E) | Fluorescence from PBB3 observed [4, 8] | Deposits labelled [7]
1 | CC[n+]1c(/C=C/c2ccc(-c3ccc(I)s3)s2)sc2ccccc21 [Example Compound 3b] | no correlation and no | yes | yes | labelled both immune-positive NFTs and dystrophic neurites | yes | yes | yes | yes | no | tau deposits, NFTs and dystrophic neurites, displayed characteristic emission | higher selectivity and most likely a higher affinity for tau deposits than PBB3 | no observable Example Compound 3b fluorescence and no | fluorescence was observed from the tau aggregates and yes | observed from the tau aggregates and could easily be observed from the q-FTAA-CN positive NFTs as well as from q-FTAA-CN negative dystrophic neurites and yes | yes |  |  |  | 
2 | COC(=O)c1ccc(-c2ccc(/C=C/c3nc4ccccc4s3)s2)s1 [Example Compound 8a] | no correlation and no | yes | yes | labelled both immune-positive NFTs and dystrophic neurites | yes | yes | yes |  |  |  |  |  |  |  |  | solvatochromatic behavior rendering a blue-shifted excitation spectrum, as well as a red-shifted emission spectrum |  |  | 
3 | CNc1ccc(/C=C/C=C/c2nc3ccc(O)cc3s2)cn1 [PBB3, reference compound] |  |  |  |  |  |  |  |  |  | Aβ deposits were visualized by the fluorescence from PBB3 |  |  |  |  |  |  | yes | both the Aβ and tau deposits exhibited strong PBB3 fluorescence and yes | labelled both Aβ and tau deposits
